Source: US6896895B2, “Carotenoid esters, carotenoid-enriched feeds, and methods of pigmenting foods and foodstuffs” (DSM IP Assets B.V., priority 2000, dated 2005)

Key:
[1] = system: skin and shanks of broilers; assay: Reflectance colorimetry and visual classification of skin and shanks of broilers; format: in vivo, broiler chickens (Ross 308, Ross 508); design: key to Shanks Visual Classification / Skin Visual Classification: −; (+); +; ++ = good color; o = orange; settings: for Shanks Chroma C*ab % of Controls / Shanks Color Hue h*ab % of Controls / Skin Chroma C*ab % of Controls / Skin Color Hue h*ab % of Controls / Shanks Chroma C*ab Value / Shanks Color Hue h*ab Value / Shanks Visual Classification / Skin Chroma C*ab Value / Skin Color Hue h*ab Value / Skin Visual Classification: dry carcasses
How it was run: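 Ross broilers were fed a low-carotenoid basal diet (<2 mg xanthophylls/kg), then received pigment-supplemented diet for three weeks and were slaughtered on day 44. Back-skin colour (mean of three points) and shank colour (single reading) were measured by Minolta chromameter (D65, 0°) and reported as CIE L*a*b*, h* and C*, averaged over ten birds (5 male, 5 female).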

[2] = Carotenoid ester content and deposition rate in egg yolk of laying hens (HPLC); format: in vivo, laying hens (ISA Brown); design: Deposition Rate Value: unit not given here; settings: for Deposition Rate Target Values % of Controls / Ethyl β-apo-8′-carotenoate Equivalents % of Controls / Deposition Rate % of Controls / Deposition Rate Target Values / Ethyl β-apo-8′-carotenoate Equivalents / Deposition Rate Value: egg yolk; for Deposition Rate % of Controls / Deposition Rate Value: Table 9
How it was run: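 Hens were first depleted for at least 28 days on a low-carotenoid basal diet (<2 mg total xanthophylls/kg, also the control diet), then fed mash supplemented with the pigments ad libitum for three weeks. Pooled homogenised yolk was extracted with ethanol/n-hexane and analysed by HPLC, calibrated with all-E ethyl β-apo-8′-carotenoate. Response factors were adjusted by molecular weight, and Z-isomers were corrected by a factor of 1.4.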

[3] = trial MC-11/99, 13.33 mg/kg feed

Deposition Rate Target Values % of Controls ([2]; average over doses, Table 7): 101%
Ethyl β-apo-8′-carotenoate Equivalents % of Controls ([2]; average over doses, Table 7): 91%
Deposition Rate % of Controls ([2]; average over doses): 101%
Deposition Rate Target Values ([2]; trial H-12/99, 1.0 mg/kg feed): 44%
Deposition Rate Target Values % of Controls ([2]; trial H-12/99, 1.0 mg/kg feed): 97%
Ethyl β-apo-8′-carotenoate Equivalents ([2]; trial H-12/99, 1.0 mg/kg feed): 2.6 mg/kg
Ethyl β-apo-8′-carotenoate Equivalents % of Controls ([2]; trial H-12/99, 1.0 mg/kg feed): 97%
Deposition Rate % of Controls ([2]; trial H-12/99, 1.0 mg/kg feed): 97%
Deposition Rate Value ([2]; trial H-12/99, 1.0 mg/kg feed): 44
Deposition Rate Target Values ([2]; trial H-12/99, 2.0 mg/kg feed): 44%
Deposition Rate Target Values % of Controls ([2]; trial H-12/99, 2.0 mg/kg feed): 100%
Ethyl β-apo-8′-carotenoate Equivalents ([2]; trial H-12/99, 2.0 mg/kg feed): 5.2 mg/kg
Ethyl β-apo-8′-carotenoate Equivalents % of Controls ([2]; trial H-12/99, 2.0 mg/kg feed): 94%
Deposition Rate % of Controls ([2]; trial H-12/99, 2.0 mg/kg feed): 100%
Deposition Rate Value ([2]; trial H-12/99, 2.0 mg/kg feed): 44
Deposition Rate Target Values ([2]; trial H-12/99, 4.0 mg/kg feed): 42%
Deposition Rate Target Values % of Controls ([2]; trial H-12/99, 4.0 mg/kg feed): 85%
Ethyl β-apo-8′-carotenoate Equivalents ([2]; trial H-12/99, 4.0 mg/kg feed): 9.6 mg/kg
Ethyl β-apo-8′-carotenoate Equivalents % of Controls ([2]; trial H-12/99, 4.0 mg/kg feed): 81%
Deposition Rate % of Controls ([2]; trial H-12/99, 4.0 mg/kg feed): 85%
Deposition Rate Value ([2]; trial H-12/99, 4.0 mg/kg feed): 42
Deposition Rate Target Values ([2]; trial H-12/99, 8.0 mg/kg feed): 49%
Deposition Rate Target Values % of Controls ([2]; trial H-12/99, 8.0 mg/kg feed): 104%
Ethyl β-apo-8′-carotenoate Equivalents ([2]; trial H-12/99, 8.0 mg/kg feed): 23.1 mg/kg
Ethyl β-apo-8′-carotenoate Equivalents % of Controls ([2]; trial H-12/99, 8.0 mg/kg feed): 96%
Deposition Rate % of Controls ([2]; trial H-12/99, 8.0 mg/kg feed): 104%
Deposition Rate Value ([2]; trial H-12/99, 8.0 mg/kg feed): 49
Deposition Rate Target Values ([2]; trial H-19/98, 4.0 mg/kg feed): 54%
Deposition Rate Target Values % of Controls ([2]; trial H-19/98, 4.0 mg/kg feed): 117%
Ethyl β-apo-8′-carotenoate Equivalents ([2]; trial H-19/98, 4.0 mg/kg feed): 11.1 mg/kg
Ethyl β-apo-8′-carotenoate Equivalents % of Controls ([2]; trial H-19/98, 4.0 mg/kg feed): 95%
Deposition Rate % of Controls ([2]; trial H-19/98, 4.0 mg/kg feed): 117%
Deposition Rate Value ([2]; trial H-19/98, 4.0 mg/kg feed): 54
Deposition Rate % of Controls ([2]; trial H-25/98, 5.0 mg/kg feed): 106%
Deposition Rate Value ([2]; trial H-25/98, 5.0 mg/kg feed): 50
Deposition Rate Target Values ([2]; trial H-25/99, 5.0 mg/kg feed): 50%
Deposition Rate Target Values % of Controls ([2]; trial H-25/99, 5.0 mg/kg feed): 100%
Ethyl β-apo-8′-carotenoate Equivalents ([2]; trial H-25/99, 5.0 mg/kg feed): 13.3 mg/kg
Ethyl β-apo-8′-carotenoate Equivalents % of Controls ([2]; trial H-25/99, 5.0 mg/kg feed): 84%
concentration in the egg yolk ([2]; versus the control): in the range of the control
Structure (SMILES): CC1=C(/C=C/C(C)=C/C=C/C(C)=C/C=C/C=C(C)/C=C/C=C(\C)C(=O)OC(C)C)C(C)(C)CCC1 [compound (17), isopropyl beta-apo-8′-carotenoate]
Shanks Chroma C*ab % of Controls ([1]; average over doses, Table 5): 115%
Shanks Color Hue h*ab % of Controls ([1]; average over doses, Table 5): 99%
Skin Chroma C*ab % of Controls ([1]; average over doses, Table 5): 113%
Skin Color Hue h*ab % of Controls ([1]; average over doses, Table 5): 102%
Shanks Chroma C*ab % of Controls [1, 3]: 97%
Shanks Chroma C*ab Value [1, 3]: 70
Shanks Color Hue h*ab % of Controls [1, 3]: 99%
Shanks Color Hue h*ab Value [1, 3]: 84
Shanks Visual Classification [1, 3]: (+)
Skin Chroma C*ab % of Controls [1, 3]: 116%
Skin Chroma C*ab Value [1, 3]: 29
Skin Color Hue h*ab % of Controls [1, 3]: 105%
Skin Color Hue h*ab Value [1, 3]: 77
Skin Visual Classification [1, 3]: (+)
Shanks Chroma C*ab % of Controls ([1]; trial MC-11/99, 20 mg/kg feed): 125%
Shanks Chroma C*ab Value ([1]; trial MC-11/99, 20 mg/kg feed): 59
Shanks Color Hue h*ab % of Controls ([1]; trial MC-11/99, 20 mg/kg feed): 103%
Shanks Color Hue h*ab Value ([1]; trial MC-11/99, 20 mg/kg feed): 87
Shanks Visual Classification ([1]; trial MC-11/99, 20 mg/kg feed): +
Skin Chroma C*ab % of Controls ([1]; trial MC-11/99, 20 mg/kg feed): 106%
Skin Chroma C*ab Value ([1]; trial MC-11/99, 20 mg/kg feed): 33
Skin Color Hue h*ab % of Controls ([1]; trial MC-11/99, 20 mg/kg feed): 100%
Skin Color Hue h*ab Value ([1]; trial MC-11/99, 20 mg/kg feed): 78
Skin Visual Classification ([1]; trial MC-11/99, 20 mg/kg feed): +
Shanks Chroma C*ab % of Controls ([1]; trial MC-11/99, 30 mg/kg feed): 108%
Shanks Chroma C*ab Value ([1]; trial MC-11/99, 30 mg/kg feed): 65
Shanks Color Hue h*ab % of Controls ([1]; trial MC-11/99, 30 mg/kg feed): 97%
Shanks Color Hue h*ab Value ([1]; trial MC-11/99, 30 mg/kg feed): 83
Shanks Visual Classification ([1]; trial MC-11/99, 30 mg/kg feed): +
Skin Chroma C*ab % of Controls ([1]; trial MC-11/99, 30 mg/kg feed): 119%
Skin Chroma C*ab Value ([1]; trial MC-11/99, 30 mg/kg feed): 40
Skin Color Hue h*ab % of Controls ([1]; trial MC-11/99, 30 mg/kg feed): 102%
Skin Color Hue h*ab Value ([1]; trial MC-11/99, 30 mg/kg feed): 79
Skin Visual Classification ([1]; trial MC-11/99, 30 mg/kg feed): +
Shanks Chroma C*ab % of Controls ([1]; trial MC-11/99, 45 mg/kg feed): 108%
Shanks Chroma C*ab Value ([1]; trial MC-11/99, 45 mg/kg feed): 71
Shanks Color Hue h*ab % of Controls ([1]; trial MC-11/99, 45 mg/kg feed): 101%
Shanks Color Hue h*ab Value ([1]; trial MC-11/99, 45 mg/kg feed): 84
Shanks Visual Classification ([1]; trial MC-11/99, 45 mg/kg feed): ++(o)
Skin Chroma C*ab % of Controls ([1]; trial MC-11/99, 45 mg/kg feed): 105%
Skin Chroma C*ab Value ([1]; trial MC-11/99, 45 mg/kg feed): 44
Skin Color Hue h*ab % of Controls ([1]; trial MC-11/99, 45 mg/kg feed): 103%
Skin Color Hue h*ab Value ([1]; trial MC-11/99, 45 mg/kg feed): 79
Skin Visual Classification ([1]; trial MC-11/99, 45 mg/kg feed): ++
Shanks Chroma C*ab % of Controls ([1]; trial MC-24/98, 30 mg/kg feed): 137%
Shanks Chroma C*ab Value ([1]; trial MC-24/98, 30 mg/kg feed): 71
Shanks Color Hue h*ab % of Controls ([1]; trial MC-24/98, 30 mg/kg feed): 93%
Shanks Color Hue h*ab Value ([1]; trial MC-24/98, 30 mg/kg feed): 80
Shanks Visual Classification ([1]; trial MC-24/98, 30 mg/kg feed): +
Skin Chroma C*ab % of Controls ([1]; trial MC-24/98, 30 mg/kg feed): 119%
Skin Chroma C*ab Value ([1]; trial MC-24/98, 30 mg/kg feed): 39
Skin Color Hue h*ab % of Controls ([1]; trial MC-24/98, 30 mg/kg feed): 102%
Skin Color Hue h*ab Value ([1]; trial MC-24/98, 30 mg/kg feed): 82
Skin Visual Classification ([1]; trial MC-24/98, 30 mg/kg feed): +
chroma C*a*b* values in the skin and in the shanks ([1]; versus the control): substantially enhanced
color hue h*a*b* in the skin and in the shanks ([1]; versus the control): not significantly changed
effectiveness in terms of concentration in the skin, and color intensity (chroma C*a*b*) in the skin and shanks ([1]; versus the control): significantly more effective
